We go through seven compounds from US20250353891A1 (MEDIMMUNE LIMITED, priority 2022, published 2025).

Starred links: 1 amine or outer side, 2 acyl side, 3 side chain; linkers in the order of their positions; H or OH if unused. Non-standard residues stand in square brackets, D forms with d. Residues, ends and D or L forms follow the SMILES beside them. Groups on a side chain read outwards from the residue. *: point of attachment. C18 diacid = O=C(O)CCCCCCCCCCCCCCCCC(=O)*; γGlu = O=C(O)[C@H](CCC(=O)[*:2])N[*:1]; αMeF = C[C@](N)(Cc1ccccc1)C(=O)O; AEEA = NCCOCCOCC(=O)O; Aib = CC(C)(N)C(=O)O

In experiment [1] the target is human GLP-1 receptor (hGLP-1R) (Homo sapiens, UniProt P43220). Description: cAMP production (HTRF) in CHO cells expressing hGLP-1R. Format: cell-based. Details: expressed in transfected cells. The settings on record: for EC50: Table 6, peptides modified at position 17, cAMP in CHO hGLP-1R cells, geometric mean, read-out: hGLP-1R EC50; for % Relative Potency Ratio: Table 6, % GLP-1R activity relative to GLP-1 / % GlucR activity relative to glucagon. An outline of the steps: (§1)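 Cells were resuspended in assay buffer at batch-optimized density, typically 1×10^5 cells/mL for hGLP-1R and 2×10^5 cells/mL for hGCGR. After 30 min incubation at room temperature with compound, cAMP was measured by two-step HTRF. EC50 values came from 4-parameter logistic fits of % Delta F.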
On the technique in general: Changes in cAMP serve as a functional read-out for many G protein-coupled receptors.

Experiment [2] has as its target human glucagon receptor (hGCGR) (Homo sapiens, UniProt P47871). In words: cAMP production (HTRF) in CHO cells expressing hGCGR. The experiment is classed as cell-based. Details: expressed in transfected cells. The settings on record: Table 6, peptides modified at position 17; cAMP in CHO hGCGR cells; geometric mean; read-out: hGluc-R EC50. An outline of the steps:
as §1

Chain of human GLP-1 receptor (hGLP-1R) (P43220 24-463): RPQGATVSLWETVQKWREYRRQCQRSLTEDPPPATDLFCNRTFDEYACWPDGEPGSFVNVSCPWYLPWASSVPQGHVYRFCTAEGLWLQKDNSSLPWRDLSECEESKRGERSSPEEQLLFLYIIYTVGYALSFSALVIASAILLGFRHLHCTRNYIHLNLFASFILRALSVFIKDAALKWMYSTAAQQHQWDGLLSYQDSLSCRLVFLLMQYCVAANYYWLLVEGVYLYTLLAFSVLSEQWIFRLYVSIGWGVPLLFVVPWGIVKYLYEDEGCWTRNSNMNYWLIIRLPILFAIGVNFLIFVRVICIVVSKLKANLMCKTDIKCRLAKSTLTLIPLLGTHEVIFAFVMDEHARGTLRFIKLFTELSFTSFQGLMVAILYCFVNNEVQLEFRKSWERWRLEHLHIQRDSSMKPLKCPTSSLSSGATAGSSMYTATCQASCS
Chain of human glucagon receptor (hGCGR) (P47871 26-477): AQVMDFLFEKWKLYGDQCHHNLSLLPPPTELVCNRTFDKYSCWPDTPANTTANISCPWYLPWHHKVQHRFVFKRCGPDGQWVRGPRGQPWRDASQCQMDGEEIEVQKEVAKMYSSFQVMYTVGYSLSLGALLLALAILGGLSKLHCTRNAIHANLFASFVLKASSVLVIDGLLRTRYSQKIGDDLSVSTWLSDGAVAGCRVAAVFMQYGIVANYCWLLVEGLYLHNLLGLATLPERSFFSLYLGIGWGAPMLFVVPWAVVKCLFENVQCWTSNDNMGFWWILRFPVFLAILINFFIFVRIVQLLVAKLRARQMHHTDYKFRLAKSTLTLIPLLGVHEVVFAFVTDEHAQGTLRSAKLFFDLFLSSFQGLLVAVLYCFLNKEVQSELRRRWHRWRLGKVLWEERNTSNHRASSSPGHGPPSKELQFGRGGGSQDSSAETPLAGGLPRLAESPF

As to `CC(C)C[C@H](NC(=O)[C@H](Cc1c[nH]c2ccccc12)NC(=O)[C@H](CCCNC(=N)N)NC(=O)[C@@H](NC(=O)[C@H](Cc1ccccc1)NC(=O)[C@H](CC(=O)O)NC(=O)[C@H](CCC(N)=O)NC(=O)[C@H](C)NC(=O)[C@H](CCCNC(=N)N)NC(=O)[C@H](CCCCNC(=O)COCCOCCNC(=O)COCCOCCNC(=O)CC[C@H](NC(=O)CCCCCCCCCCCCCCCCC(=O)O)C(=O)O)NC(=O)[C@H](CO)NC(=O)[C@H](CCC(=O)O)NC(=O)[C@H](CC(C)C)NC(=O)[C@](C)(Cc1ccccc1)NC(=O)[C@H](CCCCN)NC(=O)[C@H](CO)NC(=O)[C@@H](NC(=O)[C@H](CC(=O)O)NC(=O)[C@H](CO)NC(=O)[C@@H](NC(=O)[C@H](Cc1ccccc1)NC(=O)[C@@H](NC(=O)CNC(=O)[C@H](CCC(N)=O)NC(=O)C(C)(C)NC(=O)[C@@H](N)Cc1c[nH]cn1)[C@@H](C)O)[C@@H](C)O)C(C)C)C(C)C)C(=O)N[C@@H](CC(C)C)C(=O)NC(C)(C)C(=O)N[C@@H](CCC(=O)O)C(=O)O` [Peptide 173] (H-H[Aib]QGTFTSDVSK[αMeF]LESK([AEEA-AEEA-γGlu-C18 diacid])RAQDFVRWLL[Aib]E-OH; N-terminus assumed), the EC50 in experiment [1] was 0.134 nM; in experiment [2], 0.874 nM. Moreover, the “% Relative Potency Ratio” value in experiment [1] was found to be 12.9.
Turning to `CC(C)C[C@H](NC(=O)[C@H](Cc1c[nH]c2ccccc12)NC(=O)[C@H](CCCNC(=N)N)NC(=O)[C@@H](NC(=O)[C@H](Cc1ccccc1)NC(=O)[C@H](CC(=O)O)NC(=O)[C@H](CCC(N)=O)NC(=O)[C@H](C)NC(=O)[C@H](CCCNC(=N)N)NC(=O)[C@H](CCCCNC(=O)COCCOCCNC(=O)COCCOCCNC(=O)CC[C@H](NC(=O)CCCCCCCCCCCCCCCCC(=O)O)C(=O)O)NC(=O)[C@@H](NC(=O)[C@H](CC(=O)O)NC(=O)[C@H](CC(C)C)NC(=O)[C@](C)(Cc1ccccc1)NC(=O)[C@H](CCCCN)NC(=O)[C@H](CO)NC(=O)[C@@H](NC(=O)[C@H](CC(=O)O)NC(=O)[C@H](CO)NC(=O)[C@@H](NC(=O)[C@H](Cc1ccccc1)NC(=O)[C@@H](NC(=O)CNC(=O)[C@H](CCC(N)=O)NC(=O)C(C)(C)NC(=O)[C@@H](N)Cc1c[nH]cn1)[C@@H](C)O)[C@@H](C)O)C(C)C)[C@@H](C)O)C(C)C)C(=O)N[C@@H](CC(C)C)C(=O)NC(C)(C)C(=O)N[C@H](C(=O)N[C@@H](CCC(=O)O)C(=O)O)[C@@H](C)O` [Peptide 174] (H-H[Aib]QGTFTSDVSK[αMeF]LDTK([AEEA-AEEA-γGlu-C18 diacid])RAQDFVRWLL[Aib]TE-OH; N-terminus assumed), in experiment [1], the EC50 is 0.127 nM and the “% Relative Potency Ratio” value was 6.5. Moreover, in experiment [2], the half-maximal effective concentration (EC50) was 0.42 nM.
The corresponding values for `CC(C)C[C@H](NC(=O)[C@H](Cc1c[nH]c2ccccc12)NC(=O)[C@H](CCCNC(=N)N)NC(=O)[C@@H](NC(=O)[C@H](Cc1ccccc1)NC(=O)[C@H](CC(=O)O)NC(=O)[C@H](CCC(N)=O)NC(=O)[C@H](C)NC(=O)[C@H](CCCNC(=N)N)NC(=O)[C@H](CCCCNC(=O)COCCOCCNC(=O)COCCOCCNC(=O)CC[C@H](NC(=O)CCCCCCCCCCCCCCCCC(=O)O)C(=O)O)NC(=O)[C@H](CO)NC(=O)[C@H](CC(=O)O)NC(=O)[C@H](CC(C)C)NC(=O)[C@](C)(Cc1ccccc1)NC(=O)[C@H](CCCCN)NC(=O)[C@H](CO)NC(=O)[C@@H](NC(=O)[C@H](CC(=O)O)NC(=O)[C@H](CO)NC(=O)[C@@H](NC(=O)[C@H](Cc1ccccc1)NC(=O)[C@@H](NC(=O)CNC(=O)[C@H](CCC(N)=O)NC(=O)C(C)(C)NC(=O)[C@@H](N)Cc1c[nH]cn1)[C@@H](C)O)[C@@H](C)O)C(C)C)C(C)C)C(=O)N[C@@H](C)C(=O)NC(C)(C)C(=O)N[C@H](C(=O)N[C@@H](CCC(=O)O)C(=O)O)[C@@H](C)O` [Peptide 175] (H-H[Aib]QGTFTSDVSK[αMeF]LDSK([AEEA-AEEA-γGlu-C18 diacid])RAQDFVRWLA[Aib]TE-OH) are 0.0684 nM, 58.4 and 2.02 nM.
Regarding `CC(C)C[C@H](NC(=O)[C@H](Cc1c[nH]c2ccccc12)NC(=O)[C@H](CCCNC(=N)N)NC(=O)[C@@H](NC(=O)[C@H](Cc1ccccc1)NC(=O)[C@H](CC(=O)O)NC(=O)[C@H](CCC(N)=O)NC(=O)[C@H](C)NC(=O)[C@H](CCCNC(=N)N)NC(=O)[C@H](CCCCNC(=O)COCCOCCNC(=O)COCCOCCNC(=O)CC[C@H](NC(=O)CCCCCCCCCCCCCCCCC(=O)O)C(=O)O)NC(=O)[C@H](CO)NC(=O)[C@H](CC(=O)O)NC(=O)[C@H](CC(C)C)NC(=O)[C@](C)(Cc1ccccc1)NC(=O)[C@H](CCCCN)NC(=O)[C@H](CO)NC(=O)[C@@H](NC(=O)[C@H](CC(=O)O)NC(=O)[C@H](CO)NC(=O)[C@@H](NC(=O)[C@H](Cc1ccccc1)NC(=O)[C@@H](NC(=O)CNC(=O)[C@H](CCC(N)=O)NC(=O)C(C)(C)NC(=O)[C@@H](N)Cc1c[nH]cn1)[C@@H](C)O)[C@@H](C)O)C(C)C)C(C)C)C(=O)N[C@@H](CC(C)C)C(=O)NC(C)(C)C(=O)N[C@H](C(=O)N[C@@H](C)C(=O)O)[C@@H](C)O` [Peptide 176] (H-H[Aib]QGTFTSDVSK[αMeF]LDSK([AEEA-AEEA-γGlu-C18 diacid])RAQDFVRWLL[Aib]TA-OH; N-terminus assumed), in experiment [1], the EC50 is 0.0599 nM and the “% Relative Potency Ratio” value amounted to 15.9. Also, in experiment [2], the EC50 stood at 0.48 nM.
The corresponding values for `CC(C)C[C@H](NC(=O)[C@H](Cc1c[nH]c2ccccc12)NC(=O)[C@H](CCCNC(=N)N)NC(=O)[C@@H](NC(=O)[C@H](Cc1ccccc1)NC(=O)[C@H](CC(=O)O)NC(=O)[C@H](CCC(N)=O)NC(=O)[C@H](C)NC(=O)[C@H](CCCNC(=N)N)NC(=O)[C@H](CCCCNC(=O)COCCOCCNC(=O)COCCOCCNC(=O)CC[C@H](NC(=O)CCCCCCCCCCCCCCCCC(=O)O)C(=O)O)NC(=O)[C@H](CCCCN)NC(=O)[C@H](CC(=O)O)NC(=O)[C@H](CC(C)C)NC(=O)[C@](C)(Cc1ccccc1)NC(=O)[C@H](CCCCN)NC(=O)[C@H](CO)NC(=O)[C@@H](NC(=O)[C@H](CC(=O)O)NC(=O)[C@H](CO)NC(=O)[C@@H](NC(=O)[C@H](Cc1ccccc1)NC(=O)[C@@H](NC(=O)CNC(=O)[C@H](CCC(N)=O)NC(=O)C(C)(C)NC(=O)[C@@H](N)Cc1c[nH]cn1)[C@@H](C)O)[C@@H](C)O)C(C)C)C(C)C)C(=O)N[C@@H](CC(C)C)C(=O)NC(C)(C)C(=O)N[C@H](C(=O)N[C@@H](CCC(=O)O)C(=O)O)[C@@H](C)O` [Peptide 178] are 0.0518 nM, 4.0 and 0.104 nM.
As to `CC(C)C[C@H](NC(=O)[C@H](CC(C)C)NC(=O)[C@H](Cc1c[nH]c2ccccc12)NC(=O)[C@H](CCCNC(=N)N)NC(=O)[C@@H](NC(=O)[C@H](Cc1ccccc1)NC(=O)[C@H](CC(=O)O)NC(=O)[C@H](CCC(N)=O)NC(=O)[C@H](C)NC(=O)[C@H](CCCNC(=N)N)NC(=O)[C@H](CCCCNC(=O)COCCOCCNC(=O)COCCOCCNC(=O)CC[C@H](NC(=O)CCCCCCCCCCCCCCCCC(=O)O)C(=O)O)NC(=O)[C@H](CO)NC(=O)[C@H](CC(=O)O)NC(=O)[C@H](CC(C)C)NC(=O)[C@](C)(Cc1ccccc1)NC(=O)[C@H](CCCCN)NC(=O)[C@H](CO)NC(=O)[C@@H](NC(=O)[C@H](CC(=O)O)NC(=O)[C@H](CO)NC(=O)[C@@H](NC(=O)[C@H](Cc1ccccc1)NC(=O)[C@@H](NC(=O)CNC(=O)[C@H](CCC(N)=O)NC(=O)C(C)(C)NC(=O)[C@@H](N)Cc1c[nH]cn1)[C@@H](C)O)[C@@H](C)O)C(C)C)C(C)C)C(=O)N[C@@H](CCC(=O)O)C(=O)N[C@@H](C)C(=O)NCC(=O)O` [Peptide 179] (H-H[Aib]QGTFTSDVSK[αMeF]LDSK([AEEA-AEEA-γGlu-C18 diacid])RAQDFVRWLLEAG-OH; N-terminus assumed), in experiment [1], the concentration giving a half-maximal response (EC50) amounted to 0.131 nM and the “% Relative Potency Ratio” value was determined as 3.1. For the same compound, the EC50 in experiment [2] is 0.203 nM.
On to `CC(C)C[C@H](NC(=O)[C@H](CC(C)C)NC(=O)[C@H](Cc1c[nH]c2ccccc12)NC(=O)[C@H](CCCNC(=N)N)NC(=O)[C@@H](NC(=O)[C@H](Cc1ccccc1)NC(=O)[C@H](CC(=O)O)NC(=O)[C@H](CCC(N)=O)NC(=O)[C@H](C)NC(=O)[C@H](CCCNC(=N)N)NC(=O)[C@H](CCCCNC(=O)COCCOCCNC(=O)COCCOCCNC(=O)CC[C@H](NC(=O)CCCCCCCCCCCCCCCCC(=O)O)C(=O)O)NC(=O)[C@H](CO)NC(=O)[C@H](CC(=O)O)NC(=O)[C@H](CC(C)C)NC(=O)[C@](C)(Cc1ccccc1)NC(=O)[C@H](CCCCN)NC(=O)[C@H](CO)NC(=O)[C@@H](NC(=O)[C@H](CC(=O)O)NC(=O)[C@H](CO)NC(=O)[C@@H](NC(=O)[C@H](Cc1ccccc1)NC(=O)[C@@H](NC(=O)CNC(=O)[C@H](CCC(N)=O)NC(=O)C(C)(C)NC(=O)[C@@H](N)Cc1c[nH]cn1)[C@@H](C)O)[C@@H](C)O)C(C)C)C(C)C)C(=O)N[C@@H](C)C(=O)NC(C)(C)C(=O)NCC(=O)O` [Peptide 180] (H-H[Aib]QGTFTSDVSK[αMeF]LDSK([AEEA-AEEA-γGlu-C18 diacid])RAQDFVRWLLA[Aib]G-OH; N-terminus assumed), for which the EC50 in experiment [1] was 0.0244 nM; in experiment [2], 0.0717 nM. Further, the “% Relative Potency Ratio” value in experiment [1] was 5.8.

Usually EC50 stands for the concentration needed to bring the measured effect to its halfway point.
